Activity calls are given as the source filed them.
How the values were obtained:
Large T antigen = Large T antigen (Simian virus 40, UniProt P03070); format: functional, Betapolyomavirus macacae;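 note: Confirmatory-stage PubChem screen for compounds that inhibit SV40 T antigen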
[1] = target: T1, Intestinal-type alkaline phosphatase (Mus musculus, UniProt P24822); assay: PubChem AID 488874; format: functional
[2] = target: T2, Intestinal-type alkaline phosphatase (Homo sapiens, UniProt P09923); assay: human IAP inhibitors, dose response, biochemical, luminescent, uHTS hits, set 2 (AID 488793); format: functional
T2 sequence (P09923 whole entry): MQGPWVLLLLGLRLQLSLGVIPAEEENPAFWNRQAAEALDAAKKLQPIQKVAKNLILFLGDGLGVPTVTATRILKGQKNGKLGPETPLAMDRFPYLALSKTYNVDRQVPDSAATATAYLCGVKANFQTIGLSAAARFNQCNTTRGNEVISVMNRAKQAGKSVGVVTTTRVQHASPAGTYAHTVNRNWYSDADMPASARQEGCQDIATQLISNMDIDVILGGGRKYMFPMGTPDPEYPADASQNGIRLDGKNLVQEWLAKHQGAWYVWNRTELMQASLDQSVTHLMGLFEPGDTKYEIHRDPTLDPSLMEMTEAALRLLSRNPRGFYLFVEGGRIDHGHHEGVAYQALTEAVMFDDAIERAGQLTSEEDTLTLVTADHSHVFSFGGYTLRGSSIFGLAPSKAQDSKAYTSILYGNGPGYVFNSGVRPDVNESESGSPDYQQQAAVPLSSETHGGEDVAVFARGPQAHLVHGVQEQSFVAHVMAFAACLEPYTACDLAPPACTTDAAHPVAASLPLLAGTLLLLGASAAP

[3] = target: T2, Intestinal-type alkaline phosphatase; assay: Dose Response confirmation of uHTS hits from a small molecule inhibitors of human intestinal alkaline phosphatase via a luminescent assay. [Related pubchem assays (depositor defined):AID2544, AID2574]; format: functional
[4] = target: T2, Intestinal-type alkaline phosphatase; assay: activation of human intestinal alkaline phosphatase – biochemical, dose response (AID 488873); format: functional
[5] = target: T1, Intestinal-type alkaline phosphatase; assay: PubChem AID 488785; format: functional
[6] = target: T3, Alkaline phosphatase, tissue-nonspecific isozyme (Homo sapiens, UniProt P05186); assay: TNAP enzyme inhibition by screening hits, dose response, selectivity assay for mouse IAP inhibitor project, biochemical, human TNAP, uHTS hits (AID 488906); format: functional
T3 sequence (P05186 whole entry): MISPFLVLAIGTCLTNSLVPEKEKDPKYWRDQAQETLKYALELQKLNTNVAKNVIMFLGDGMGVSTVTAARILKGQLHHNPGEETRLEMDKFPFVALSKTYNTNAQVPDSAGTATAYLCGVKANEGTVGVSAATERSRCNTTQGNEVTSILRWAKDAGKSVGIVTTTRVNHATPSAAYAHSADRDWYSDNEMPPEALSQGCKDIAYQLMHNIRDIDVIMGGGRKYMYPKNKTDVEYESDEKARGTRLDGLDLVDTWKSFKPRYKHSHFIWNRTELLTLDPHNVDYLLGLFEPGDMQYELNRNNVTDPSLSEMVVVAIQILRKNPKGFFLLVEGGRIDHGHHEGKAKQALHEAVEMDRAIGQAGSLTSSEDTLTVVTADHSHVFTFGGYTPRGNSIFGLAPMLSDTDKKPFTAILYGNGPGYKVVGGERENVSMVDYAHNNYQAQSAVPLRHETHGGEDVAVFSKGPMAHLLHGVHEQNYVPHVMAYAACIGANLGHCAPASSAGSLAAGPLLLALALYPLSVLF

[7] = target: T3, Alkaline phosphatase, tissue-nonspecific isozyme; assay: inhibition of tissue-nonspecific alkaline phosphatase – biochemical, dose response (AID 488882); format: functional
[8] = target: 1-phosphatidylinositol 4,5-bisphosphate phosphodiesterase gamma-1 (Homo sapiens, UniProt P19174); assay: Counterscreen for inhibitors of phospholipase C isozymes (PLC-B3): Fluorescence-based biochemical high throughput dose response assay to identify inhibitors of phospholipase C isozymes (PLC-gamma1).
Sequence of 1-phosphatidylinositol 4,5-bisphosphate phosphodiesterase gamma-1 (P19174 whole entry): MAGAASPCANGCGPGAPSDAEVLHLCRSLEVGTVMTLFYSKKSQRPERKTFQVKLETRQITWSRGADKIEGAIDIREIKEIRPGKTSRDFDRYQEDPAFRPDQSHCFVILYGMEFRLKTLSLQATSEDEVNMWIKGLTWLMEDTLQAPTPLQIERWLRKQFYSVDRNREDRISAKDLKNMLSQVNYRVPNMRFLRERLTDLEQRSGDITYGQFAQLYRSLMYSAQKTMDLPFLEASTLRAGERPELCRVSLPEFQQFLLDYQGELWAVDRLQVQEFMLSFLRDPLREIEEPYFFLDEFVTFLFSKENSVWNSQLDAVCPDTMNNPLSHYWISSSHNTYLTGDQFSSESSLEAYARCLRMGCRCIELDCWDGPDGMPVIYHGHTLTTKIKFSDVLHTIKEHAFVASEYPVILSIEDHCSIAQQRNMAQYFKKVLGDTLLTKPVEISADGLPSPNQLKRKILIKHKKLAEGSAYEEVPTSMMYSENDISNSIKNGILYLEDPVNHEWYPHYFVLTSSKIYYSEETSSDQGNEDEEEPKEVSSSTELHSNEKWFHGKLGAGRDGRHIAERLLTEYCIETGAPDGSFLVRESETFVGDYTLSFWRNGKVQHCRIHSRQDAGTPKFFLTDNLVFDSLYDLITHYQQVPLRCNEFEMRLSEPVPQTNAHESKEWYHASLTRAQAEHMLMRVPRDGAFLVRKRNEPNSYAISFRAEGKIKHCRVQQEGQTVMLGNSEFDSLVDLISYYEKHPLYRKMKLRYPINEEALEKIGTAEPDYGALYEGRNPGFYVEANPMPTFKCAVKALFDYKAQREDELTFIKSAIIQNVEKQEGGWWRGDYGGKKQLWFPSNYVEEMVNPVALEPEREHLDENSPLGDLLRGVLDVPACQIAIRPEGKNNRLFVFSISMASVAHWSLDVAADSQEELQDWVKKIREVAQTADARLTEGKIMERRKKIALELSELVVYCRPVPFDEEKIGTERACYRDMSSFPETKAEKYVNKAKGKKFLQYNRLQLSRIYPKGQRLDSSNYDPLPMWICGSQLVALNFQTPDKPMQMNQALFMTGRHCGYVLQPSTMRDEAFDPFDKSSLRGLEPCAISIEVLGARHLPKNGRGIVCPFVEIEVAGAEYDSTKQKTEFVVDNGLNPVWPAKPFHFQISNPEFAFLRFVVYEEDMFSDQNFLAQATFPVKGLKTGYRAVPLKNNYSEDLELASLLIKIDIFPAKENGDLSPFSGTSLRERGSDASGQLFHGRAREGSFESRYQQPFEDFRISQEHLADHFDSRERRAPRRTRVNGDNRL

[9] = target: 1-phosphatidylinositol 4,5-bisphosphate phosphodiesterase beta-3 (Homo sapiens, UniProt Q01970); assay: Fluorescence-based biochemical high throughput dose response assay to identify inhibitors of phospholipase C isozymes (PLC-B3).
Sequence of 1-phosphatidylinositol 4,5-bisphosphate phosphodiesterase beta-3 (Q01970 whole entry): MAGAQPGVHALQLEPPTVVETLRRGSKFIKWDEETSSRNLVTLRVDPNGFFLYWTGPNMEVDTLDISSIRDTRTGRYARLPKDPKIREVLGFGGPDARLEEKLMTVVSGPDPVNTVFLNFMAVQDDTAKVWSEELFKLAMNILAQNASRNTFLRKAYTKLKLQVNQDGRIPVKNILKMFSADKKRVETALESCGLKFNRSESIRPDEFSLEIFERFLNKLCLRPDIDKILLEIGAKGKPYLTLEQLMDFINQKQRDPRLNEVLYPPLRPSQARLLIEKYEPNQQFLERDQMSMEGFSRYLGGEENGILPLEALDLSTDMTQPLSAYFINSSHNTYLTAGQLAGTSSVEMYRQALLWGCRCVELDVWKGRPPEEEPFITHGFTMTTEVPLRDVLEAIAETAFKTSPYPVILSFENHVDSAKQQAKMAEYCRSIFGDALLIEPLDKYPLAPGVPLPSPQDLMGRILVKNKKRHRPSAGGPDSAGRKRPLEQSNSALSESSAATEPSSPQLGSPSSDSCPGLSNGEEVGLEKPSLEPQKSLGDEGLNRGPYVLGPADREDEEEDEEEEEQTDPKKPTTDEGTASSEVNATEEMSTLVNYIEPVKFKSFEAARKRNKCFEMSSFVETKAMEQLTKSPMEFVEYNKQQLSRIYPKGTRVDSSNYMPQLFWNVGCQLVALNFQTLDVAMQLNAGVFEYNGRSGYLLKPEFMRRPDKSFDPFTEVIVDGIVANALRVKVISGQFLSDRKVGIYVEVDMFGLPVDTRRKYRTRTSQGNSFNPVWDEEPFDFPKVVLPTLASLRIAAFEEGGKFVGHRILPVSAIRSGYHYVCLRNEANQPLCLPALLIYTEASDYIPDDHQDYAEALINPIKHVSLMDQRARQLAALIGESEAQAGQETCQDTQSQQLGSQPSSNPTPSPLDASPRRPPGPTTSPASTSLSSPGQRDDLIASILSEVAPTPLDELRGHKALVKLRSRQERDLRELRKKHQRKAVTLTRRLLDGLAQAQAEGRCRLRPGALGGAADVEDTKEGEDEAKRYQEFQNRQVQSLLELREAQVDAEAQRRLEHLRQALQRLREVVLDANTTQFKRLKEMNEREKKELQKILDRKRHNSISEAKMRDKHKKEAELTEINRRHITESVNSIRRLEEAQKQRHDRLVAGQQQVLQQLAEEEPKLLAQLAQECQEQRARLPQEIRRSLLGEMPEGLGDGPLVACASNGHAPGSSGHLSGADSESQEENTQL

Cytochrome P450 3A4 = Cytochrome P450 3A4 (Homo sapiens, UniProt P08684);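 note: CYP3A4 tested as one member of a cytochrome P450 panel screen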
[10] = target: Sphingosine 1-phosphate receptor 1 (Homo sapiens, UniProt P21453); assay: Fluorescence-based counterscreen assay for S1P4 agonists: Cell-based dose response high throughput screening assay to identify agonists of the Sphingosine 1-Phosphate Receptor 1 (S1P1). [Related pubchem assays (depositor defined):AID1509, AID1523, AID1801, AID463107, AID463118, AID463119, AID463122, AID463123, AID463129, AID463225, AID504400, AID504460]; format: functional
Sequence of Sphingosine 1-phosphate receptor 1 (P21453 whole entry): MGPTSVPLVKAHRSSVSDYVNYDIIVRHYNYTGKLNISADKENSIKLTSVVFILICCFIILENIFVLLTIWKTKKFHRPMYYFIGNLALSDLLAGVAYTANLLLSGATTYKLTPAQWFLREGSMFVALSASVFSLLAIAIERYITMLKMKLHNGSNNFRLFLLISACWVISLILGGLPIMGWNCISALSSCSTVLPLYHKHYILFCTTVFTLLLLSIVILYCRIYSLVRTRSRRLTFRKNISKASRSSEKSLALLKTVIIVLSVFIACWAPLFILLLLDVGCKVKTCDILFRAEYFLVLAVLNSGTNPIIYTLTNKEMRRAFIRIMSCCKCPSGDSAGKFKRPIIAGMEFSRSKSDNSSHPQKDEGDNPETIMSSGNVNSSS

Aminopeptidase N = target: T4, Aminopeptidase N (Plasmodium falciparum FcB1/Columbia, UniProt O96935); assay: P. falciparum M1AAP inhibitors, biochemical, fluorogenic H-Leu-NHMec substrate, 1536-well (AID 1445); design: species or system Plasmodium falciparum 3D7, 3D7
T4 sequence (O96935 whole entry): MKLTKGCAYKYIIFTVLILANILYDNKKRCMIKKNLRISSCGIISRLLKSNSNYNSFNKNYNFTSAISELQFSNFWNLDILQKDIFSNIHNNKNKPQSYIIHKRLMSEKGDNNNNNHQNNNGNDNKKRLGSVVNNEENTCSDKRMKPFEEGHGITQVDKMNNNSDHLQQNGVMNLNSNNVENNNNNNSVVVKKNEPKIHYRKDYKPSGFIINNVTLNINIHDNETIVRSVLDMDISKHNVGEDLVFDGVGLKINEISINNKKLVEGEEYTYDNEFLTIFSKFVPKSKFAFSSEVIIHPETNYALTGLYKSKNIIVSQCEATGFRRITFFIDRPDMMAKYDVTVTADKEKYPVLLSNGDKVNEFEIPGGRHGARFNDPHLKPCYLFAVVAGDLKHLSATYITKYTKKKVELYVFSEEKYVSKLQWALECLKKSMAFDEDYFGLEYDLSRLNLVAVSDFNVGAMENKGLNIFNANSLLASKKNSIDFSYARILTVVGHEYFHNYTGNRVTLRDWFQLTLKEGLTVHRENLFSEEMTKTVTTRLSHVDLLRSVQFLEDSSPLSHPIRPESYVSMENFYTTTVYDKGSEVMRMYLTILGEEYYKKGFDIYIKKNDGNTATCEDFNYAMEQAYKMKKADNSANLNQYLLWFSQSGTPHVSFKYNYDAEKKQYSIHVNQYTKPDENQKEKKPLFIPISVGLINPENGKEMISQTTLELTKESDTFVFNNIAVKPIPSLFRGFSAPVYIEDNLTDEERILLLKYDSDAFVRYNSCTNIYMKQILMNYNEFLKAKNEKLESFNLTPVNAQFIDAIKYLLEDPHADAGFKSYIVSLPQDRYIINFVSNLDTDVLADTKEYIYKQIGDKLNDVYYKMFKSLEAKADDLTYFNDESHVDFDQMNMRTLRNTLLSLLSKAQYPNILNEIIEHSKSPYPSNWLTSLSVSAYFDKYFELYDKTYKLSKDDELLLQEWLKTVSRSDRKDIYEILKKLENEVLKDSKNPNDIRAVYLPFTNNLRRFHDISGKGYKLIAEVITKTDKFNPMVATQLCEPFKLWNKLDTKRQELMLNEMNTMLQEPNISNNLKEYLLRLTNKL

[11] = target: Sphingosine 1-phosphate receptor 4 (Homo sapiens, UniProt O95977); assay: Fluorescence dose response cell-based high throughput screening assay for agonists of the Sphingosine 1-Phosphate Receptor 4 (S1P4). [Related pubchem assays: 1509 (Primary screen.), 1523 (Confirmation screen in triplicates.)]; format: functional
Sequence of Sphingosine 1-phosphate receptor 4 (O95977 whole entry): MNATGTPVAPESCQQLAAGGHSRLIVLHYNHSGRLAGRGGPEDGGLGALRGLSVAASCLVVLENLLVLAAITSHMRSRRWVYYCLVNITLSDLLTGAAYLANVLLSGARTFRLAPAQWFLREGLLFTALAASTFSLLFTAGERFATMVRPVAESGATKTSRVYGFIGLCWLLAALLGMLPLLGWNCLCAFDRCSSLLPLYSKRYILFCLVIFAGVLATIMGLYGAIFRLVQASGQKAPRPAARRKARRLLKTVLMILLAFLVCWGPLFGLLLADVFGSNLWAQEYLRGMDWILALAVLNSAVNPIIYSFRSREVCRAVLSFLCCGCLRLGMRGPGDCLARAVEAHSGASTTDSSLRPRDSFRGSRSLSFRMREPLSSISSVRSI

[12] = target: Sphingosine 1-phosphate receptor 2 (Homo sapiens, UniProt O95136); assay: Dose Response Cell Based Assay for Agonists of the S1P2 Receptor. [Related pubchem assays: 729, 736, 843 ]; format: functional
Sequence of Sphingosine 1-phosphate receptor 2 (O95136 whole entry): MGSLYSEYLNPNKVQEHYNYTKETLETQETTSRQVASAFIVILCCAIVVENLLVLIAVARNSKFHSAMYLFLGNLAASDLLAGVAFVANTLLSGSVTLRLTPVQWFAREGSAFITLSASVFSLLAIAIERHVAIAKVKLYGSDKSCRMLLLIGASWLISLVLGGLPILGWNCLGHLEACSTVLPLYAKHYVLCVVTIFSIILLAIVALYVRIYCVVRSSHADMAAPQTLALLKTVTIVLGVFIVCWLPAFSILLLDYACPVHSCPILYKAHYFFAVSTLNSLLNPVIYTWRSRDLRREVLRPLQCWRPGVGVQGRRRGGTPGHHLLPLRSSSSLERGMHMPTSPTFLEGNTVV

Exodeoxyribonuclease V = Exodeoxyribonuclease V (Escherichia coli (strain K12), UniProt P04993+P07648+P08394); assay: E. coli RecBCD inhibitors, dose response, counter-screen for AddAB inhibitor project, absorbance, V66 E. coli, mutant T4 phage (AID 492957); format: functional, cell-based, Escherichia coli str. K-12 substr. MG1655
[13] = Counterscreen for AddAB inhibitors: absorbance-based bacterial cell-based high throughput dose response assay for inhibitors of bacterial viability. [Related pubchem assays (depositor defined):AID435030, AID449728, AID449731, AID488942, AID488955, AID488956]; format: functional
[14] = target: Voltage-dependent T-type calcium channel subunit alpha-1H (Homo sapiens, UniProt O95180); assay: Cav3.2 T-type channel blockers, cell-based, SynthLib3 library, HEK293 Cav3.2, fluorescence (AID 493041); format: functional
[15] = insulin promoter down-regulators in MIN6 cells, imaging, high-content screening, mouse beta cells (AID 1628); format: functional
[16] = cytotoxicity in MIN6 insulinoma cells, dose response, cytotoxicity control, cell-based, mouse insulinoma (AID 2122); format: functional;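 note: confirmatory high-throughput counterscreen run to flag cytotoxic compounds; mouse MIN-6 beta cells carrying an insulin promoter eGFP reporter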
[17] = target: T5, Ubiquitin-conjugating enzyme E2 N (Homo sapiens, UniProt P61088); format: functional;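 note: Dose-response confirmation in a TR-FRET assay detecting UBC13-driven polyubiquitin chain formation, inhibition measured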
T5 sequence (P61088 whole entry): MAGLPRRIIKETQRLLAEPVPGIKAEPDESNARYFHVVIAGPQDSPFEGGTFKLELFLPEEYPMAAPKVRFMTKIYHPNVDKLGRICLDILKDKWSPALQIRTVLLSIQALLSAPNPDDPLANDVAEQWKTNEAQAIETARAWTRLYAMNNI

[18] = target: T6, Replicative DNA helicase DnaB (Mycobacterium tuberculosis, UniProt P9WMR3); assay: DnaB intein splicing inhibitors, dose response, biochemical, cell-free fluorescence (AID 449749); format: functional
T6 sequence (P9WMR3 whole entry): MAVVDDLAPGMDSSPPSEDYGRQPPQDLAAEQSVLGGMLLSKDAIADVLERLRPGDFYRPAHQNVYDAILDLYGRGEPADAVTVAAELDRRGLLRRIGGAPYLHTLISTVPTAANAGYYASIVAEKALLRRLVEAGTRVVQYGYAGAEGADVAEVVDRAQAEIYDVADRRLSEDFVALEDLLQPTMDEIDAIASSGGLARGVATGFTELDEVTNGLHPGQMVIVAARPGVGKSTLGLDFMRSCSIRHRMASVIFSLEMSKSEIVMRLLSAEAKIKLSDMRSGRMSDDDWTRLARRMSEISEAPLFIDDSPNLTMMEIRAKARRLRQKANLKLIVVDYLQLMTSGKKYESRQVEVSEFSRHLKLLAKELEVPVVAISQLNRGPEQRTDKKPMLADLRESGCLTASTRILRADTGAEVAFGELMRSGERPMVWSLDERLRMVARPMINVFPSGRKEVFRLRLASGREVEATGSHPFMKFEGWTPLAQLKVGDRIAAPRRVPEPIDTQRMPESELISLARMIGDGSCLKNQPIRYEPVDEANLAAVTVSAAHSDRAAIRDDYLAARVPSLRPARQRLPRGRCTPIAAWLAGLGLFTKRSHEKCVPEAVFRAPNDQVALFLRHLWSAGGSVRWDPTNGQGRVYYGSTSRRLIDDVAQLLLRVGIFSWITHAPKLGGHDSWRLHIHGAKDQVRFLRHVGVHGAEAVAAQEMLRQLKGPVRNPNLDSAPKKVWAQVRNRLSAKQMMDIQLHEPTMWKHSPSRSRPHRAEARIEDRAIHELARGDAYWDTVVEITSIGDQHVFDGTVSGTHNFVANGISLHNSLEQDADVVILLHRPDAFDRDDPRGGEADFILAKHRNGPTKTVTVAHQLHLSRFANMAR

Protein RecA = target: T7, Protein RecA (Mycobacterium tuberculosis, UniProt P9WHJ3); assay: Fluorescence Cell-Free Homogeneous Dose Retest to Identify Inhibitors of RecA-Intein Splicing Activity. [Related pubchem assays (depositor defined):AID2097, AID2223, AID489010, AID492950]; format: functional
T7 sequence (P9WHJ3 whole entry): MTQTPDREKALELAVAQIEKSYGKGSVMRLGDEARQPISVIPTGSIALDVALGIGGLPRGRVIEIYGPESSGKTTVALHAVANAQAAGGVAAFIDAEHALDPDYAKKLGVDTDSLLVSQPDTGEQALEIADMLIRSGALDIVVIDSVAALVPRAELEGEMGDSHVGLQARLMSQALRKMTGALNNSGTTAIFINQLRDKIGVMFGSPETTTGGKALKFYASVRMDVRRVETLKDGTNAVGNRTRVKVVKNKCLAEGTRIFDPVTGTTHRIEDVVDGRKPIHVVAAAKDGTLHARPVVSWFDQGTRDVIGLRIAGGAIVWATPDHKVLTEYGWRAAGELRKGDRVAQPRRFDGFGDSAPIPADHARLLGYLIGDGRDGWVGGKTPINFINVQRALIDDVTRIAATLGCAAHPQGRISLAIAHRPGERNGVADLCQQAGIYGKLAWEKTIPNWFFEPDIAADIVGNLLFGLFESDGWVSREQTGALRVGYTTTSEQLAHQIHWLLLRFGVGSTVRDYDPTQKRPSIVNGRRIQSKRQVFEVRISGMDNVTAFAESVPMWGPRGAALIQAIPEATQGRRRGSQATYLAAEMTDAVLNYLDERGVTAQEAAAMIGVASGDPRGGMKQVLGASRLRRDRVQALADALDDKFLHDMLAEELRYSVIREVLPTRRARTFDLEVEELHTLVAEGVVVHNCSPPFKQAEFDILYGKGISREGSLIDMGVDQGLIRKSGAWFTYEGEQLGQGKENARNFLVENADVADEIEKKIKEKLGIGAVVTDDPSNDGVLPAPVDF

T1 sequence (P24822 whole entry): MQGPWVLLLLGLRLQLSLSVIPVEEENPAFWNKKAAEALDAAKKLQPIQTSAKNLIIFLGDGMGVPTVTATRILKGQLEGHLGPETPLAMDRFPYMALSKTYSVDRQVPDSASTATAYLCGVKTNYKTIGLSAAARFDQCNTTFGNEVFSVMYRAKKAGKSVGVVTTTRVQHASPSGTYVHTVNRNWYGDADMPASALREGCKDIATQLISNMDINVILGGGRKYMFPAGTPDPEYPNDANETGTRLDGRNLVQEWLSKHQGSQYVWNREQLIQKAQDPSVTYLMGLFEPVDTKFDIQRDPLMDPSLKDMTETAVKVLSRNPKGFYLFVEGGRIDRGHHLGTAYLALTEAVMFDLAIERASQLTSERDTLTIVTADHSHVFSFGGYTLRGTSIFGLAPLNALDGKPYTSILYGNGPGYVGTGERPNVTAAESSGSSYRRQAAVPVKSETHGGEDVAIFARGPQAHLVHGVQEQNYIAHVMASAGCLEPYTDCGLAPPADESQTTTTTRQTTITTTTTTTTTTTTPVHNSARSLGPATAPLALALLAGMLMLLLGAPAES

COc1cc(/C=C(\C#N)C(=O)c2ccc(O)c(O)c2)cc(I)c1O
IC50 (Large T antigen): 7.17 µM (active) | IC50 [1]: < 0.195 µM (active) | IC50 [2]: 4.56 µM (active) | IC50 [3]: 7.31 µM (active) | EC50 [4]: > 100 µM (inactive) | IC50 [5]: 5.7 µM (active) | IC50 [6]: > 100 µM (inactive) | IC50 [7]: 5.88 µM (active) | IC50 [8]: > 122 µM (inactive) | IC50 [9]: > 122 µM (inactive) | AC50 (Cytochrome P450 3A4): 12.6 µM (inconclusive)

CC(C)n1c(=N)c(C(=O)NCCc2ccccc2)cc2c(=O)n3ccccc3nc21
EC50 [10]: 15.9 µM (inactive) | IC50 (Aminopeptidase N): 58.6 µM (active) | EC50 [11]: 5.78 µM (active) | EC50 [12]: 4.8 µM (active)

CCOc1ccc2oc(C(=O)NNC(=O)c3ccccc3O)c(C)c2c1
IC50 (Exodeoxyribonuclease V): > 119 µM (inactive) | IC50 [13]: > 119 µM (inactive)

CCC(CC)CN1C[C@@H]2C(CNC(=O)c3cc(Cl)cc(Cl)c3)[C@@H]2C1 (stereo partly drawn)
EC50 [14]: 1.2 µM (active)

Fc1ccc(Nc2nc(NCc3ccco3)c3ccccc3n2)cc1
IC50 [15]: 1.7 µM (active) | IC50 [16]: 1.93 µM (active) | IC50 [17]: > 20 µM (inactive) | AC50 [18]: 1.93 µM (active) | EC50 (Protein RecA): 8.32 µM (active)

Reference: ChEMBL document CHEMBL1201862, “PubChem BioAssay data set” (2004)
